From PubChem BioAssay AID256 (DTP/NCI, 2004)
“And” between values parts separate entries of the source, which are not always exact repeats. Equal entries are not always repeated. Inconclusive results and toxic doses are left out. How the source made its calls: active means survival T/C of 150% or more; inactive means T/C below 125% in these data.

Tested on: CD2F1 mice, L1210 leukemia ip, survival T/C
Test: NCI In Vivo Anticancer Drug Screen. Data for tumor model L1210 Leukemia (intraperitoneal) in CD2F1 (CDF1) mice
Conditions: higher = longer survival
How it was run: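 Tumor-bearing mice (transplanted tumor) were split into treated and vehicle control groups, and the measured endpoint of each treated group was divided by that of its vehicle controls.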

[1] = endpoint: mean survival time, dose: 100.0 mg/kg/injection, schedule: Q04DX003 (ip), vehicle: saline with Tween-80
[2] = endpoint: mean survival time, dose: 200.0 mg/kg/injection, schedule: Q04DX003 (ip), vehicle: saline with Tween-80
[3] = endpoint: mean survival time, dose: 100.0 mg/kg/injection, schedule: Q01DX001 (ip), vehicle: saline with Tween-80
[4] = endpoint: mean survival time, dose: 200.0 mg/kg/injection, schedule: Q01DX001 (ip), vehicle: saline with Tween-80
[5] = endpoint: mean survival time, dose: 400.0 mg/kg/injection, schedule: Q01DX001 (ip), vehicle: saline with Tween-80
[6] = endpoint: mean survival time, dose: 100.0 mg/kg/injection, schedule: Q01DX009 (ip), vehicle: saline with Tween-80
[7] = endpoint: mean survival time, dose: 200.0 mg/kg/injection, schedule: Q01DX009 (ip), vehicle: saline with Tween-80
[8] = endpoint: mean survival time, dose: 400.0 mg/kg/injection, schedule: Q01DX009 (ip), vehicle: saline with Tween-80
[9] = endpoint: mean survival time, dose: 400.0 mg/kg/injection, schedule: Q04DX003 (ip), vehicle: saline with Tween-80

Measured: T/C

[N-]=[N+]=CC(=O)c1c(Cl)n(-c2ccccc2)c2ccccc12
inactive: endpoint: mean survival time, dose: 50.0 mg/kg/injection, schedule: Q04DX003 (ip), vehicle: saline with Tween-80 90 % of control | [1] 98 % of control | [2] 101 % of control

CC(=O)Nc1ccc(S(=O)(=O)N(CCO)CCO)cc1
inactive: [3] 100 % of control | endpoint: mean survival time, dose: 100.0 mg/kg/injection, schedule: Q01DX009 (ip), vehicle: saline sonified 100 % of control | [4] 102 % of control | endpoint: mean survival time, dose: 200.0 mg/kg/injection, schedule: Q01DX009 (ip), vehicle: saline sonified 95 % of control | [5] 98 % of control | endpoint: mean survival time, dose: 400.0 mg/kg/injection, schedule: Q01DX009 (ip), vehicle: saline sonified 97 % of control

CC[C@H](CC[C@@H](C)[C@H]1CC[C@H]2[C@@H]3CC=C4C[C@@H](O)CC[C@]4(C)[C@H]3CC[C@]12C)C(C)C
inactive: [6] 89 % of control | [7] 101 % of control | [8] 95 % of control

CCOC(=O)/C(C#N)=N\O
inactive: endpoint: mean survival time, dose: 100.0 mg/kg/injection, schedule: Q01DX001 (ip), vehicle: saline 102 % of control

COc1nc(NC2OCC(O)C(O)C2O)c(C(C)=O)c(=O)n1C (stereo not given)
inactive: endpoint: median survival time, dose: 12.5 mg/kg/injection, schedule: Q01DX005 (ip), vehicle: saline with Tween-80 91 % of control | endpoint: median survival time, dose: 25.0 mg/kg/injection, schedule: Q01DX005 (ip), vehicle: saline with Tween-80 98 % of control | endpoint: median survival time, dose: 50.0 mg/kg/injection, schedule: Q01DX005 (ip), vehicle: saline with Tween-80 97 % of control | endpoint: median survival time, dose: 100.0 mg/kg/injection, schedule: Q01DX005 (ip), vehicle: saline with Tween-80 96 % of control | endpoint: median survival time, dose: 200.0 mg/kg/injection, schedule: Q01DX005 (ip), vehicle: saline with Tween-80 96 % of control

CC(=O)S[C@@H]1CC2=CC(=O)CC[C@]2(C)[C@H]2CC[C@@]3(C)[C@@H](CC[C@@]34CCC(=O)O4)[C@H]12
inactive: endpoint: mean survival time, dose: 100.0 mg/kg/injection, schedule: Q04DX003 (sc), vehicle: steriod suspending solution 95 % of control | endpoint: mean survival time, dose: 200.0 mg/kg/injection, schedule: Q04DX003 (sc), vehicle: steriod suspending solution 97 % of control | endpoint: mean survival time, dose: 400.0 mg/kg/injection, schedule: Q04DX003 (sc), vehicle: steriod suspending solution 98 % of control

Cc1ccc(S(=O)(=O)[N-]Cl)cc1.[Cl][Pt][Cl]
inactive: endpoint: mean survival time, dose: 4.7 mg/kg/injection, schedule: Q04DX003 (ip), vehicle: saline with Tween-80 95 % of control | endpoint: mean survival time, dose: 9.4 mg/kg/injection, schedule: Q04DX003 (ip), vehicle: saline with Tween-80 100 % of control | endpoint: mean survival time, dose: 18.75 mg/kg/injection, schedule: Q04DX003 (ip), vehicle: saline with Tween-80 100 % of control | endpoint: mean survival time, dose: 37.5 mg/kg/injection, schedule: Q04DX003 (ip), vehicle: saline with Tween-80 103 % of control | endpoint: mean survival time, dose: 75.0 mg/kg/injection, schedule: Q04DX003 (ip), vehicle: saline with Tween-80 103 % of control

Nc1ccc(CCCCc2ccc(Cl)cc2Cl)cc1
inactive: [1] 104 % of control | [2] 110 % of control

Cc1nc(N)[nH]c(=O)c1CCCN(c1ccccc1)S(=O)(=O)c1ccc(N)cc1
inactive: [3] 101 % of control | [4] 89 % of control | [5] 89 % of control

C1OCN2CSCC12 (stereo not given)
inactive: endpoint: mean survival time, dose: 12.5 mg/kg/injection, schedule: Q01DX009 (ip), vehicle: saline with Tween-80 93 % of control and 96 % of control | endpoint: mean survival time, dose: 25.0 mg/kg/injection, schedule: Q01DX009 (ip), vehicle: saline with Tween-80 98 % of control and 100 % of control | endpoint: mean survival time, dose: 50.0 mg/kg/injection, schedule: Q01DX009 (ip), vehicle: saline with Tween-80 98 % of control and 102 % of control | [6] 101 % of control and 103 % of control | [7] 104 % of control and 108 % of control | [8] 110 % of control

COC(=O)CCS/C=C/C(=O)O
inactive: [3] 97 % of control | [4] 100 % of control | [5] 97 % of control

COC(=O)C([NH-])c1ccccc1.COC(=O)C([NH-])c1ccccc1.[Cl][Pt+2][Cl] (stereo not given)
inactive: endpoint: median survival time, dose: 3.12 mg/kg/injection, schedule: Q04DX003 (ip), vehicle: saline 101 % of control | endpoint: median survival time, dose: 6.25 mg/kg/injection, schedule: Q04DX003 (ip), vehicle: saline 100 % of control | endpoint: median survival time, dose: 12.5 mg/kg/injection, schedule: Q04DX003 (ip), vehicle: saline 100 % of control | endpoint: median survival time, dose: 25.0 mg/kg/injection, schedule: Q04DX003 (ip), vehicle: saline 101 % of control | endpoint: median survival time, dose: 50.0 mg/kg/injection, schedule: Q04DX003 (ip), vehicle: saline 101 % of control | endpoint: median survival time, dose: 100.0 mg/kg/injection, schedule: Q04DX003 (ip), vehicle: saline 103 % of control

CCCC(C)CC1CCC(N)CC1 (stereo not given)
inactive: endpoint: mean survival time, dose: 100.0 mg/kg/injection, schedule: Q04DX002 (ip), vehicle: saline 96 % of control | endpoint: mean survival time, dose: 200.0 mg/kg/injection, schedule: Q04DX002 (ip), vehicle: saline 96 % of control

CCC1(C)N=C(C)C(C)S1 (stereo not given)
inactive: [6] 89 % of control | [7] 100 % of control | [8] 91 % of control

c1ccc(Oc2ccc(-c3ccc(Oc4ccccc4)cc3)cc2)cc1
inactive: [2] 95 % of control | [9] 91 % of control

Cc1c(C)c(O)c(Br)c(C)c1O (tested in a mixture with another compound)
inactive: endpoint: mean survival time, dose: 25.0 mg/kg/injection, schedule: Q04DX003 (ip), vehicle: other 100 % of control | endpoint: mean survival time, dose: 50.0 mg/kg/injection, schedule: Q04DX003 (ip), vehicle: other 94 % of control

CC1=NN(c2ccccc2)C(=O)C1N=Nc1ccc([As](=O)(O)O)c(O)c1 (stereo not given)
inactive: [6] 103 % of control | [1] 106 % of control | [7] 97 % of control | [2] 100 % of control | [9] 101 % of control

CC(C)C(O)C(C)(C)c1nc2ccccc2[nH]1 (stereo not given)
inactive: [3] 100 % of control | [4] 94 % of control

CC(C(=O)c1ccccc1)C(c1ccccc1)N1CCCCC1 (stereo not given)
inactive: [3] 92 % of control | [6] 87 % of control | [7] 96 % of control | [5] 90 % of control | [8] 93 % of control

COC1=C(OC)C(C(O)CO)OC1=O (stereo not given)
inactive: endpoint: mean survival time, dose: 25.0 mg/kg/injection, schedule: Q01DX009 (ip), vehicle: water 93 % of control | endpoint: mean survival time, dose: 50.0 mg/kg/injection, schedule: Q01DX009 (ip), vehicle: water 89 % of control | endpoint: mean survival time, dose: 100.0 mg/kg/injection, schedule: Q01DX009 (ip), vehicle: water 100 % of control | endpoint: mean survival time, dose: 200.0 mg/kg/injection, schedule: Q01DX009 (ip), vehicle: water 94 % of control | endpoint: mean survival time, dose: 400.0 mg/kg/injection, schedule: Q01DX009 (ip), vehicle: water 100 % of control

O=S(=O)(O)c1cc(N=Nc2cccc3ccccc23)c(O)c2ncccc12
inactive: [1] 104 % of control | [2] 97 % of control | [9] 106 % of control

N/C(=N/OCc1ccccc1)c1ncn(C2CCCC2)c1NC=O
inactive: endpoint: mean survival time, dose: 100.0 mg/kg/injection, schedule: Q01DX001 (ip), vehicle: other 112 % of control | endpoint: mean survival time, dose: 200.0 mg/kg/injection, schedule: Q01DX001 (ip), vehicle: other 104 % of control | endpoint: mean survival time, dose: 400.0 mg/kg/injection, schedule: Q01DX001 (ip), vehicle: other 102 % of control

OCC(O)C(O)C(O)c1csc(=S)[nH]1 (stereo not given)
inactive: [3] 97 % of control | [4] 103 % of control | [5] 100 % of control

Cc1ccc(S(=O)(=O)O/N=C2/CCSc3ccccc32)cc1
inactive: endpoint: mean survival time, dose: 100.0 mg/kg/injection, schedule: Q01DX001 (ip), vehicle: acetone 100 % of control | endpoint: mean survival time, dose: 200.0 mg/kg/injection, schedule: Q01DX001 (ip), vehicle: acetone 97 % of control | endpoint: mean survival time, dose: 400.0 mg/kg/injection, schedule: Q01DX001 (ip), vehicle: acetone 97 % of control

N#Cc1cnn(-c2ccc([N+](=O)[O-])cc2)c1N
inactive: [1] 111 % of control | [2] 100 % of control | [9] 100 % of control

CCCCC(NCCNC(CCCC)C(=O)O)C(=O)O (stereo not given)
inactive: [1] 102 % of control | [2] 91 % of control | [9] 107 % of control
